Measured values reported in article PMC2644050 (The Journal of pharmacology and experimental therapeutics, 2008).

Experiments:
[1] = target: T1, human muscarinic M4 receptor (CHO M4) (Homo sapiens, UniProt P08173); test: inhibition of forskolin-stimulated cAMP accumulation, [3H]adenine pre-labeling; format: cell-based; settings: CHO M4 cells, Gi pathway, 10 μM forskolin; agonist
T1 sequence (P08173 1-479): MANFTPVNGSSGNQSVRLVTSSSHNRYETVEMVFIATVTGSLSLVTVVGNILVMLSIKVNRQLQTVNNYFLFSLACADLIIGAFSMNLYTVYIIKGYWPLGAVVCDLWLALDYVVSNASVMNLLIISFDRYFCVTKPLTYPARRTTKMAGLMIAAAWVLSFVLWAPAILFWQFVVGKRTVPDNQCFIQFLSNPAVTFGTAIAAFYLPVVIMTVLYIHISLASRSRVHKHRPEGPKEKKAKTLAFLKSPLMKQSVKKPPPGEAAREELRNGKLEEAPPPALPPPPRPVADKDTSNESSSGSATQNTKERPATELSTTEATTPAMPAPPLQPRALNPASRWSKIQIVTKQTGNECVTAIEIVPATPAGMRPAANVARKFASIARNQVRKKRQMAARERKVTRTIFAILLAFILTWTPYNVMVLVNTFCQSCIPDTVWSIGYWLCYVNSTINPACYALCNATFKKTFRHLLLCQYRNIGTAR

[2] = target: T2, human muscarinic M1 receptor (CHO M1) (Homo sapiens, UniProt P11229); test: stimulation of phosphoinositide hydrolysis, [3H]inositol pre-labeling; format: cell-based
T2 sequence (P11229 1-460): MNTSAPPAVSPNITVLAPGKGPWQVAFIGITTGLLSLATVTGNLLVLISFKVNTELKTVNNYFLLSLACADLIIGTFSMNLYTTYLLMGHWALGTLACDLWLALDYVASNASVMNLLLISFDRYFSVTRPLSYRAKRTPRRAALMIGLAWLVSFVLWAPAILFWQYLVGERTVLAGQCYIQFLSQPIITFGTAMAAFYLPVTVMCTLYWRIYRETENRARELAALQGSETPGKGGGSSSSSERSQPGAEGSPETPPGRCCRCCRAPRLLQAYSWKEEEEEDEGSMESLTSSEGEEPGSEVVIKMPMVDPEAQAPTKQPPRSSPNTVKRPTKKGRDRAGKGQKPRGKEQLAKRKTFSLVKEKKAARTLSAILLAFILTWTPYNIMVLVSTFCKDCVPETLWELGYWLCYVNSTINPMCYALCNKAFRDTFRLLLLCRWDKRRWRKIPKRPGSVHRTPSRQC

## C[N+](C)(C)CC#CCN1CCCC1=O [oxotremorine-M]
[1]
  EC50 (μM): 0.030 (−7.52 ± .07) μM
[2]
  EC50 (μM): 0.041 (−7.39 ± .05) μM
